Our source for the GI50 and TGI values is PubChem BioAssay (NCI).

Among the test systems are CCRF-CEM leukemia; COLO 205 colon; HL-60(TB) leukemia; OVCAR-4 ovarian; OVCAR-8 ovarian; NCI-H460 lung; SF-295 CNS; HOP-62 NSCLC; SR leukemia; SF-268 CNS.
Common to all, as to experiment: NCI anticancer screen, dose series, 48 h

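A five-concentration, 48-hour dose response in 96-well plates underlies each endpoint, interpolated linearly between surrounding concentrations. GI50 is the concentration that inhibits growth by half. TGI denotes the concentration required for complete inhibition of growth.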 Where only a bound is given, the exact number is not on record here.

As to `FC(F)(F)c1ccc(-c2cnc(Br)nc2NC2CCCCCC2)cc1`, the GI50 is 84.7 µM in the experiment on CCRF-CEM leukemia; 83.3 µM in the experiment on COLO 205 colon; 31.4 µM in the experiment on HL-60(TB) leukemia; 26 µM in the experiment with OVCAR-4 ovarian; over 100 µM in the experiment on OVCAR-8 ovarian; 82.2 µM in the experiment on NCI-H460 lung. Further, the GI50 in the experiment with SF-295 CNS was 69.6 µM; in the experiment with HOP-62 NSCLC, over 100 µM; in the experiment on SR leukemia, 30.5 µM; in the experiment on SF-268 CNS, over 100 µM. Further, the TGI in the experiment on CCRF-CEM leukemia, in the experiment on COLO 205 colon, in the experiment on HL-60(TB) leukemia, with OVCAR-4 ovarian, with OVCAR-8 ovarian and in the experiment with NCI-H460 lung was over 100 µM each time. In addition, the TGI in the experiment with SF-295 CNS, with HOP-62 NSCLC, in the experiment on SR leukemia and with SF-268 CNS was over 100 µM throughout.

`O=C1/C(=C/c2cccs2)CCC/C1=C\c1cccs1`: the GI50 with COLO 205 colon was over 100 µM; in the experiment on HL-60(TB) leukemia it was over 100 µM; in the experiment with OVCAR-4 ovarian, 14.6 µM; in the experiment on OVCAR-8 ovarian, 51.6 µM; in the experiment with NCI-H460 lung, over 76.4 µM; in the experiment with SF-295 CNS it was 66.5 µM. The GI50 in the experiment with HOP-62 NSCLC is 21.9 µM; in the experiment on SR leukemia, over 94.9 µM; in the experiment with SF-268 CNS, 33.5 µM. In addition, the TGI was over 100 µM in the experiment on COLO 205 colon; over 100 µM with HL-60(TB) leukemia; 45.2 µM in the experiment on OVCAR-4 ovarian; over 100 µM with OVCAR-8 ovarian; over 100 µM in the experiment on NCI-H460 lung; over 100 µM with SF-295 CNS. In addition, the TGI in the experiment on HOP-62 NSCLC was 49.2 µM; with SR leukemia, over 100 µM; in the experiment on SF-268 CNS, over 100 µM.

Regarding `COc1ccccc1-n1c(SCc2cc(OC)c(OC)c(OC)c2)nc2ccc(Cl)cc2c1=O`, the GI50 in the experiment on CCRF-CEM leukemia was 3.07 µM; with COLO 205 colon it was 3.03 µM; in the experiment on HL-60(TB) leukemia, 2.99 µM; in the experiment with OVCAR-4 ovarian, 7.35 µM; with OVCAR-8 ovarian it was 8.86 µM; in the experiment on NCI-H460 lung, 3.34 µM. The GI50 in the experiment on HOP-62 NSCLC was 9.4 µM; in the experiment with SR leukemia, 0.538 µM; with SF-268 CNS, 23.1 µM. The TGI was over 100 µM in the experiment with CCRF-CEM leukemia; over 100 µM with COLO 205 colon; 18.7 µM with HL-60(TB) leukemia; over 100 µM in the experiment with OVCAR-4 ovarian; over 100 µM in the experiment with OVCAR-8 ovarian; over 100 µM in the experiment on NCI-H460 lung. The TGI in the experiment with HOP-62 NSCLC, in the experiment with SR leukemia and with SF-268 CNS was over 100 µM in each case.

As to `Cn1c(=O)c2[nH]c(COc3ccc(C(C)(C)C)cc3)nc2n(C)c1=O`, the GI50 in the experiment with COLO 205 colon is 50.3 µM; in the experiment on HL-60(TB) leukemia, 10.6 µM; with OVCAR-8 ovarian, 18.3 µM; in the experiment on NCI-H460 lung, 15.4 µM; in the experiment on SF-295 CNS it was 4.03 µM; in the experiment with HOP-62 NSCLC, 35.4 µM. The GI50 in the experiment with SR leukemia was 5.12 µM; in the experiment on SF-268 CNS it was 14.1 µM. The TGI with COLO 205 colon is over 100 µM; in the experiment on HL-60(TB) leukemia, 50.3 µM; in the experiment with OVCAR-8 ovarian, 67.1 µM; in the experiment on NCI-H460 lung, over 100 µM; in the experiment with SF-295 CNS, over 100 µM; in the experiment on HOP-62 NSCLC, over 100 µM. The TGI in the experiment on SR leukemia is 55.9 µM; in the experiment on SF-268 CNS, over 100 µM.

As to `Cn1ccnc1C(=O)/C=C/c1ccc(C(=O)Nc2nc3ccccc3[nH]2)cc1`, the GI50 with CCRF-CEM leukemia was 1.28 µM; in the experiment on HL-60(TB) leukemia it was 7.87 µM; in the experiment on OVCAR-4 ovarian it was 1.12 µM; with OVCAR-8 ovarian, 8.99 µM; with NCI-H460 lung it was 1.6 µM; with SF-295 CNS it was over 25 µM. Further, the GI50 with HOP-62 NSCLC was 6.42 µM; with SR leukemia, 0.956 µM; in the experiment on SF-268 CNS, 2.41 µM. Further, the TGI with CCRF-CEM leukemia, in the experiment with HL-60(TB) leukemia, in the experiment on OVCAR-4 ovarian, in the experiment with OVCAR-8 ovarian, with NCI-H460 lung and in the experiment on SF-295 CNS was over 25 µM each time. Further, the TGI in the experiment with HOP-62 NSCLC, in the experiment with SR leukemia and in the experiment on SF-268 CNS was over 25 µM throughout.

For `COc1cc(C2C(C#N)=C(N)OC3=C2C(=O)c2ccccc2C3=O)cc(OC)c1OC` (centres undefined), the GI50 was 3.55 µM with COLO 205 colon; 2.28 µM in the experiment with HL-60(TB) leukemia; 3.45 µM in the experiment on OVCAR-4 ovarian; 1.12 µM in the experiment on OVCAR-8 ovarian; 0.532 µM in the experiment on NCI-H460 lung; 8.29 µM with SF-295 CNS. The GI50 with HOP-62 NSCLC is 0.961 µM; with SR leukemia, 0.337 µM; in the experiment with SF-268 CNS, 6.58 µM. Besides, the TGI with COLO 205 colon stood at 19.7 µM; with HL-60(TB) leukemia it was 6.77 µM; in the experiment with OVCAR-4 ovarian, 12.5 µM; with OVCAR-8 ovarian, 24.1 µM; in the experiment on NCI-H460 lung it was 14.5 µM; in the experiment on SF-295 CNS it was 24.8 µM. Besides, the values for the TGI in the experiment with HOP-62 NSCLC, with SR leukemia and in the experiment with SF-268 CNS were 17.7 µM, over 100 µM and 60.7 µM, respectively.

With `O=C(NNS(=O)(=O)c1cc(C(F)(F)F)cc(C(F)(F)F)c1)c1cnn(-c2ccc(Cl)cc2)c1C(F)(F)F`, the GI50 with COLO 205 colon is 17.4 µM; in the experiment with HL-60(TB) leukemia it was 20.7 µM; in the experiment on OVCAR-4 ovarian, 38.3 µM; in the experiment on OVCAR-8 ovarian, 16.1 µM; in the experiment on NCI-H460 lung, 17.2 µM; in the experiment on SF-295 CNS, 14.9 µM. The GI50 was 18.2 µM in the experiment with HOP-62 NSCLC, 19.4 µM in the experiment on SR leukemia and 21.6 µM in the experiment on SF-268 CNS. Besides, the TGI in the experiment with COLO 205 colon is 34.8 µM; in the experiment on HL-60(TB) leukemia, 45.6 µM; in the experiment on OVCAR-4 ovarian it was over 100 µM; in the experiment with OVCAR-8 ovarian, 51.7 µM; in the experiment on NCI-H460 lung, 37.2 µM; with SF-295 CNS, 44 µM. The results for the TGI in the experiment with HOP-62 NSCLC, in the experiment with SR leukemia and in the experiment on SF-268 CNS were 34.3 µM, 42 µM and 52.6 µM, respectively.

As to `O=C(/C=C/c1cccc(Cl)c1)c1ccc(Cl)cc1Cl`, the GI50 with COLO 205 colon was 12.2 µM; with HL-60(TB) leukemia it was 25.3 µM; in the experiment with OVCAR-4 ovarian, 13.4 µM; with OVCAR-8 ovarian, 12 µM; with NCI-H460 lung, 13.2 µM; with SF-295 CNS it was 10.1 µM. For the same molecule, the results for the GI50 in the experiment on HOP-62 NSCLC, in the experiment with SR leukemia and with SF-268 CNS were 17.4 µM, 0.005 µM and 10.2 µM, respectively. Moreover, the TGI in the experiment on COLO 205 colon was 40.6 µM; in the experiment on HL-60(TB) leukemia, over 50 µM; in the experiment with OVCAR-4 ovarian it was 41.5 µM; in the experiment on OVCAR-8 ovarian, 36.9 µM; in the experiment on NCI-H460 lung it was over 50 µM; in the experiment with SF-295 CNS it was 22.4 µM. In addition, the TGI in the experiment with HOP-62 NSCLC was over 50 µM; with SR leukemia it was 4.31 µM; in the experiment with SF-268 CNS, 25.1 µM.
